Consider 11 compounds from patent publication US20250270190A1, “KIT INHIBITORS” (BLUEPRINT MEDICINES CORPORATION, priority 2022, published 2025).

Molecules are shown by their SMILES.

The IC50 is the point on the concentration scale where inhibition reaches its midpoint.

The test deals with T1, c-kit autophosphorylation (Phospho c-Kit Tyr721) in HMC 1.1 (exon 11/13) cells, V654A (Homo sapiens, UniProt P10721, V560G/V654A).
T1 construct: endogenous in cells; host or cells: HMC 1.1 (exon 11/13) cells
T1 sequence (P10721 26-976 V560G/V654A): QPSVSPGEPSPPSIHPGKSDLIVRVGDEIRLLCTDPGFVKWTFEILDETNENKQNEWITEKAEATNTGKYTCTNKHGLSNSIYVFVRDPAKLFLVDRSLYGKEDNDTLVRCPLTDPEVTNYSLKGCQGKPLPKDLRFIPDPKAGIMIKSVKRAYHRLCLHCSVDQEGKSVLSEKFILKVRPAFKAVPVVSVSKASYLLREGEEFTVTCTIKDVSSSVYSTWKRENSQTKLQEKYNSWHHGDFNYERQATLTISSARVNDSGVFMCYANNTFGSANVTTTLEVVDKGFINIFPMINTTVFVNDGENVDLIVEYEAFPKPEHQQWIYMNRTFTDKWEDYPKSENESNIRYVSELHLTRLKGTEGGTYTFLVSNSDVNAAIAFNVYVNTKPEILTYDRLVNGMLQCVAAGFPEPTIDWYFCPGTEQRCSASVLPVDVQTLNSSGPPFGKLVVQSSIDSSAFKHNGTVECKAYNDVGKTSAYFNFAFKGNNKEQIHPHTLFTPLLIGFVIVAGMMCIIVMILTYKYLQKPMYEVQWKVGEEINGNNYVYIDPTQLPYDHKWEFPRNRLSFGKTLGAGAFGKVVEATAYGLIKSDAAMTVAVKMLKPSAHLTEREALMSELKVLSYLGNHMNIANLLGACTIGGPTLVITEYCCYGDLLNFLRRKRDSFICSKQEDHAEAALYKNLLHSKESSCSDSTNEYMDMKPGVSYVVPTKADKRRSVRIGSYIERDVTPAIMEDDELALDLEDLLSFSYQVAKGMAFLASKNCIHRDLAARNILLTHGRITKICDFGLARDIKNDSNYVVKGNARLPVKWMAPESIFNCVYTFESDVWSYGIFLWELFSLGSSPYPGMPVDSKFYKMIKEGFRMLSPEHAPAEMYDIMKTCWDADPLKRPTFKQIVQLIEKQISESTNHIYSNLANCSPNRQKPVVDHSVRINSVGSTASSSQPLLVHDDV
Kind of test: pKIT Meso Scale Discovery (MSD) assay, inhibition of autophosphorylation of KIT, HMC1.1_V654A. The test is classed as cell-based. As to conditions: Table 1, cell line not named for Table 1, b1056 names pKIT HMC1.1_V654A, read-out: Code (IC50 for inhibition of autophosphorylation of KIT, pKIT MSD assay). Summed up:
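HMC1.1 cells were serum-starved for 4 h in serum-free, iron-free, phenol red-free IMDM, then treated with compound in dose-response for 90 min at 37 °C. Staurosporine and DMSO served as controls. Lysates were analysed by MSD electrochemiluminescence immunoassay for phospho-c-Kit Tyr721, and % inhibition of autophosphorylation was derived.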
Take `Nc1cc(Nc2cc(OC3CC3)c(-c3cnn([C@@H]4CCOC4)c3)cn2)nc(C(F)F)n1` (single isomer, unassigned) [Compound 165, (R)—N4-(4-cyclopropoxy-5-(1-(tetrahydrofuran-3-yl)-1H-pyrazol-4-yl)pyridin-2-yl)-2-(difluoromethyl)pyrimidine-4,6-diamine or (S)—N4-(4-cyclopropoxy-5-(1-(tetrahydrofuran-3-yl)-1H-pyrazol-4-yl)pyridin-2-yl)-2-(difluoromethyl)pyrimidine-4,6-diamine]: the IC50 is less than 10 nM. With `CNC(=O)c1cnc(Nc2cc(N)nc(C(F)F)n2)cc1NCC(C)C` [Compound 43, 6-((6-amino-2-(difluoromethyl)pyrimidin-4-yl)amino)-4-(isobutylamino)-N-methylnicotinamide], the IC50 is less than 10 nM.

Turning to `CNC(C)Cn1cc(-c2cnc(Nc3cc(N)nc(C(F)F)n3)cc2OC(F)F)cn1` (centres unmarked) [Compound 180, N4-(4-(difluoromethoxy)-5-(1-(2-(methylamino)propyl)-1H-pyrazol-4-yl)pyridin-2-yl)-2-(difluoromethyl)pyrimidine-4,6-diamine], the IC50 was less than 10 nM. The same measure for `Nc1cc(Nc2cc(NC3CC3)c(C(=O)NCC3CC3)cn2)nc(C(F)F)n1` [Compound 79, 6-((6-amino-2-(difluoromethyl)pyrimidin-4-yl)amino)-4-(cyclopropylamino)-N-(cyclopropylmethyl)nicotinamide]: 10 to 40 nM; for `Cn1cc(-c2cnc(Nc3cc(N)nc(C(F)F)n3)cc2OCc2cccc(N)c2)cn1` [Compound 178, N4-(4-((3-aminobenzyl)oxy)-5-(1-methyl-1H-pyrazol-4-yl)pyridin-2-yl)-2-(difluoromethyl)pyrimidine-4,6-diamine]: less than 10 nM.

As for `COc1cc(Nc2cc(N)nc(C(F)F)n2)ncc1-c1cnn(C2CC(O)C2)c1` (centres unmarked) [Compound 112, 3-(4-(6-((6-amino-2-(difluoromethyl)pyrimidin-4-yl)amino)-4-methoxypyridin-3-yl)-1H-pyrazol-1-yl)cyclobutan-1-ol], the half-inhibitory concentration (IC50) is 10 to 40 nM. `Nc1cc(Nc2cc(OC3CC3)c(-c3cnn(CCN4CCC4)c3)cn2)nc(C(F)F)n1` [Compound 182, N4-(5-(1-(2-(azetidin-1-yl)ethyl)-1H-pyrazol-4-yl)-4-cyclopropoxypyridin-2-yl)-2-(difluoromethyl)pyrimidine-4,6-diamine]: the IC50 was less than 10 nM. Turning to `COc1cc(Nc2cc(N)nc(C(F)F)n2)ncc1-c1cnn([C@H]2CCOC2)c1` (single isomer, unassigned) [Compound 109, (S)-2-(difluoromethyl)-N4-(4-methoxy-5-(1-(tetrahydrofuran-3-yl)-1H-pyrazol-4-yl)pyridin-2-yl)pyrimidine-4,6-diamine or (R)-2-(difluoromethyl)-N4-(4-methoxy-5-(1-(tetrahydrofuran-3-yl)-1H-pyrazol-4-yl)pyridin-2-yl)pyrimidine-4,6-diamine], the IC50 was less than 10 nM. For `CC(C)(O)CCn1cc(-c2cnc(Nc3cc(N)nc(C(F)F)n3)cc2OC2CC2)cn1` [Compound 185, 4-(4-(6-((6-amino-2-(difluoromethyl)pyrimidin-4-yl)amino)-4-cyclopropoxypyridin-3-yl)-1H-pyrazol-1-yl)-2-methylbutan-2-ol], the IC50 is less than 10 nM. Turning to `Nc1cc(Nc2cc(OC3CC3)c(-c3cnn(C[C@@H]4CCN4)c3)cn2)nc(C(F)F)n1` (single isomer, unassigned) [Compound 162, (S)-N4-(5-(1-(azetidin-2-ylmethyl)-1H-pyrazol-4-yl)-4-cyclopropoxypyridin-2-yl)-2-(difluoromethyl)pyrimidine-4,6-diamine or (R)-N4-(5-(1-(azetidin-2-ylmethyl)-1H-pyrazol-4-yl)-4-cyclopropoxypyridin-2-yl)-2-(difluoromethyl)pyrimidine-4,6-diamine], the IC50 is less than 10 nM. The result for `CCNC(=O)c1cnc(Nc2cc(N)nc(C(F)F)n2)cc1NCC` [Compound 30, 6-((6-amino-2-(difluoromethyl)pyrimidin-4-yl)amino)-N-ethyl-4-(ethylamino)nicotinamide] reads 10 to 40 nM.
